{"source": "paper PMC12757955", "about": "“A nonavalent BODIPY with a multivalent arrangement of α-mannosides enables lectins recognition in fluorescence-based assays” (RSC Chemical Biology, 2025)", "key": {"ConA [1]": {"biological_target": "T1, ConA (Canavalia ensiformis, UniProt P02866)", "T1 construct": "purchased Sigma Aldrich L7647-100MG", "assay": "Competitive fluorescence polarization assay (displacement of Man9-BODIPY from ConA)", "type": "binding", "procedure": "Titration experiments allowed us to define the concentration of ConA to be used in a competitive displacement assay, which was set to 2 µM.\nThe fluorescence polarization is expressed in millipolarization (mP) units (A).\n(§1) All experiments were performed at room temperature (25 °C)."}, "concanavalin A (ConA)": {"biological_target": "T2, concanavalin A (ConA) (Canavalia ensiformis, UniProt P02866)", "T2 construct": "purchased Sigma Aldrich L7647-100MG", "assay": "Fluorescence polarization (FP) titration of BODIPY probes with ConA", "type": "binding", "conditions": "probe 0.5 µM, increasing ConA", "procedure": "All experiments were conducted at 25 °C.\nas §1"}, "ConA [2]": {"biological_target": "T1, ConA", "experimental": "Accordingly, preliminary agglutination experiments were performed by following a previously reported protocol,[28] thus expecting aggregation of lectin with the mannosylated BODIPYs driven by the molecular recognition of the mannose residues on the fluorescent probes. Accordingly, Tris-BODIPY-OH was used as a negative control. The changes in the absorption (λ = 490 nm) of the solutions of the glycoBODIPYs treated with a fixed concentration of ConA (20 µM in HEPES 25 mM, pH 7.6, 1 mM CaCl2, 1 mM MnCl2) were monitored over time (0–30 min, Fig. 3A).\nData are normalized according to the maximum optical density value.\nA solution of ConA (20 µM) in the buffer (HEPES 25 mM pH 7.6, 1 mM CaCl2, 1 mM MnCl2) was prepared. In a 96-well plate (Microplate, 96 wells, PS, F-BOTTOM (CHIMNEY WELL), clear, non-binding) were placed 100 µL of the 20 µM solution of each BODIPY, then 100 µL of the solution of ConA was added. The mixture was gently shaken for 10 minutes, then the optical density at λ = 490 nm was measured every minute for 30 minutes. The measurements were carried out in triplicate."}, "ConA [3]": {"biological_target": "T1, ConA", "type": "binding", "conditions": "BODIPY 500 nM, ConA 500 nM", "experimental": "Accordingly, FLIM was used in this work to directly visualize the formation of the glycoBODIPY/ConA complexes. […] The color scale in the images corresponds to the dye lifetime measured by FLIM for each pixel in the image.\nFig. 4 FLIM images measured for: (left panels) the (free) BODIPY solutions 500 nM in HEPES 25 mM pH 7.6, 1 mM CaCl2, 1 mM MnCl2 and for (right panels) solutions of the BODIPYs (500 nM) combined with ConA (500 nM in HEPES 25 mM pH 7.6, 1 mM CaCl2, 1 mM MnCl2).\nFLIM was performed at room temperature (20 °C) on a Nikon Ti AX-R NSPARC confocal microscope using a Nikon Plan Apo λD 100× oil immersion objective (NA = 1.45). The microscope is equipped with a two-channel PicoQuant FLIM compact module system. Images of 1024 × 1024 pixels were acquired using a 488 nm pulsed laser for excitation and recording photons of fluorescence emission at a wavelength of 620 ± 50 nm for 90 s at a frequency of 25 MHz through a PMA Hybrid single photon counting module and a MultiHarp 150 multichannel event timer. Lifetime histograms were calculated and analyzed using SymphoTime©. Samples were inserted into LabteK chambers, and the images were acquired at 10 µm from the coverslip to avoid interactions of the dye with the surface of the coverslip."}, "ConA [4]": {"biological_target": "T1, ConA", "type": "binding", "conditions": "FCS, probe 500 nM, ConA 50 nM", "experimental": "500 nM solution of each dye in the absence or presence of 50 nM ConA was placed in a glass-bottom ibidi 18-well µ-slides, precoated with albumin (Sigma Aldrich) to reduce dye adsorption to the surface. FCS experiments were performed with an Abberior Instruments microscope in the confocal mode using the Olympus UPlanSApo 60×/1.2 water immersion objective and steered through the Imspector software. Fluorescence was excited by a 561 nm pulsed excitation laser at an average power of around 10 µW, and detected by an avalanche photodiode through a 0.9 Airy-unit pinhole and a 580–630 nm emission filter (Semrock). Intensity fluctuations were acquired in 2 µs bins for 15–120 seconds at least 5 times per sample. The intensity traces were autocorrelated and further analysed with the open source FoCuS-scan software (https://github.com/dwaithe/FCS_scanning_correlator)[41] employing the 3D-diffusion model (fits in Fig. 8) with the aspect ratio of the optical point-spread-function and anomalous diffusion exponent fixed to 10 and 0.9, respectively."}}}
{"smiles": "OC[C@H]1OC(O)[C@@H](O)[C@@H](O)[C@@H]1O", "note": "(stereo partly drawn) [D-mannose]", "values": [{"measurement": "Competitive displacement of the probe (in words)", "setting": "ConA [1]", "value": "competitively displaced the probe"}, {"measurement": "mP0", "setting": "ConA [1]", "value": "113.9 ± 4.0"}, {"measurement": "mPmax", "setting": "ConA [1]", "value": "432 ± 13"}]}
{"smiles": "CC1=C(C#CCOCC(CO)(CO)CO)C(C)=[N+]2C1=C(c1ccc(-n3cc(COCC(CO)(CO)CO)nn3)cc1)c1c(C)c(C#CCOCC(CO)(CO)CO)c(C)n1[B-]2(F)F", "note": "[Tris-BODIPY-OH]", "values": [{"measurement": "Binding to ConA in FP titration (in words)", "setting": "concanavalin A (ConA)", "value": "did not bind to ConA"}, {"measurement": "Change of turbidity / absorption (λ = 490 nm) over time with ConA", "setting": "ConA [2]; BODIPY 20 µM solution, ConA 20 µM solution, HEPES pH 7.6, 0–30 min", "value": "No change in the absorption"}, {"measurement": "Change of fluorescence lifetime histogram in the presence of ConA", "setting": "ConA [3]", "value": "the peak of the histogram is unchanged"}, {"measurement": "Shift of the autocorrelation curve in the presence of ConA", "setting": "ConA [4]", "value": "no shift was observed"}]}
{"smiles": "CO[C@H]1O[C@H](CO)[C@@H](O)[C@H](O)[C@@H]1O", "note": "[α-O-methyl-D-mannopyranoside]", "values": [{"measurement": "Deagglutination of glycoBODIPYs/ConA aggregates", "setting": "ConA [2]; 50 mM competitor added, optical density at 490 nm", "value": "fast deagglutination process"}]}
